Experimental data: article PMC4201456, “Cytoxicity and Apoptotic Mechanism of Ruthenium(II) Amino Acid Complexes in Sarcoma-180 Tumor Cells” (PLoS ONE, 2014)

What was measured:
Format in all cases: cell-based, murine
[1] = test system: caspase 3; assay: Real-time RT-PCR gene expression, caspase 3; conditions: S180 cells, 40 µM, 6 h; normalized to β-actin
Description: (§1) The S180 cells were treated with 40 µM complex 2 for 6 h. Total RNA was extracted with Trizol reagent (Sigma-Aldrich, USA) following the manufacturer's protocol. Total RNA (2.0 µg) was used to produce complementary DNA (cDNA) with random primers (Applied Biosystems, USA) in a 20 µL reaction mixture according to the manufacturer's protocol.
(§2) Real-time PCR was carried out using a Line Gene K (Bioer Technology) instrument. Real-time PCR reactions were carried out in a 20 µL reaction mixture, including 2 µL of cDNA, 10 µL of SYBR Green PCR Master Mix (LGC Biotechnology, UK), and 2.0 µL of 400 nM forward and reverse primers. The PCR program was initiated at 95°C for 15 min followed by 40 cycles of 95°C for 15 s, 55°C for 15 s, and 72°C for 30 s. The data were analyzed according to the comparative Ct method and were normalized to the β-actin reference gene expression in each sample.

[2] = test system: Bak protein; assay: Western blot analysis of Bak protein; conditions: S180 cells, 60 µM, 24 h; normalized to β-actin; control 5.08
Description: The S180 cells were treated with 40 µM and 60 µM complex 2 for 24 h. Untreated cells maintained in media only were used as the control. After treatment, the cells were washed with PBS and lysed with lysis buffer (Invitrogen). The samples were stored at −20°C until further analysis. The protein concentrations of the resulting lysates were determined using the Bradford assay. A total of 70 µg of protein extract was mixed with Laemmli loading buffer and subjected to 12% SDS-PAGE at 100 V for 2 h, followed by electroblotting to nitrocellulose membranes (0.45 µm) (Bio-Rad Laboratories, Inc.) at 400 mA for 1.5 h. […] The membranes were washed in TBS-T, incubated with an HRP-conjugated IgG secondary antibody (Santa Cruz Biotechnology Inc., 1∶1000 dilution) for 1 h, and washed with TBS-T. The immunoreactive bands were detected using an ECL western blotting substrate (Super Signal West Pico Substrate, Thermo Scientific), and the ECL signals were captured using a CCD camera (ImageQuant LAS 4000 mini; GE Healthcare). The optical density of the target protein bands was measured using IMAGE J software downloaded from the NIH website (http://rsb.info.nih.gov.ij/) to compare the protein levels. […]

[3] = test system: caspase-9; assay: Caspase activity colorimetric assay (LEHD-pNA); conditions: S180 cells, 40 µM, 24 h; control 100%
Description: (§3) Direct measurement of the activity of caspases 3, 8, and 9 were performed using the ApoTarget Caspase 3, 8, and 9 Protease Assay (Invitrogen) according to the manufacturer's recommendations. After treatment with complex 2 (40 µM and 60 µM) for 24 h, the cells were lysed with chilled cell lysis buffer. The protein concentration was then measured using the BSA Protein Assay Kit (BioRad). An aliquot of the protein extract (75 µg) was mixed with 50 µL of 2X reaction buffer supplemented with 10 mM DTT and the substrates of DEVD-pNA (caspase-3), IETD-pNA (caspase-8), or LEHD-pNA (caspase-9). The mixtures were then incubated for 2 h at 37°C. Subsequently, the formation of p-nitroanilide in the samples was measured using an ELISA microplate reader at 405 nm. The increases in the activities of caspase-3, caspase-8, and caspase-9 were determined by comparing the results with the control.

[4] = test system: caspase-8; assay: Caspase activity colorimetric assay (IETD-pNA); conditions: S180 cells, 40 µM, 24 h; control 100%
Description: as §3

[5] = test system: S180 cells; assay: Cell cycle analysis by PI flow cytometry
Description: The S180 cells were treated with complex 2 (40 µM and 60 µM) for 24 h and 48 h. Briefly, 5.0×10^5 cells were harvested by centrifugation, washed with phosphate-buffered saline (PBS), fixed with 70% (v/v) cold ethanol and stored overnight at −20°C. The fixed cells were washed with PBS and incubated with propidium iodide (PI; Sigma-Aldrich) containing 0.05% RNase. The samples were incubated at 4°C in the dark and analyzed by flow cytometry (FACS Calibur, BD Biosciences). The percentage of cells in the G0/G1, S, G2/M and sub-G1 phases was analyzed using ModFit software.

[6] = test system: L929 normal cells; assay: MTT cell viability assay, L929 normal cells; conditions: L929 normal cell line, 48 h
Description: The murine sarcoma-180 tumor cells (S180) (ATCC# TIB-66) and normal murine fibroblast cells (L-929) (ATCC# CCL-1) were cultured in suspension in RPMI 1640 and DMEM media (Sigma Chemical Co., MO), respectively, supplemented with 10% fetal calf serum, 100 µg/mL penicillin, and 100 µg/mL streptomycin. The cultures were incubated in a humidified incubator (Thermo Scientific) at 37°C with 5% CO2.
The cytotoxic effects of the amino acid ruthenium complexes were evaluated using an MTT assay with S180 tumor cells and L929 normal cells as described previously. Briefly, 1.0×10^5 S180 cells and 2.0×10^4 L929 cells were plated in 96-well tissue culture plates and treated with different concentrations of amino acid ruthenium complexes (0.2–200 µM) for 48 h. After treatment, 10 µL of MTT (5 mg mL^−1) was added to each well, and the plates were incubated at 37°C for an additional 3 h. The purple formazan crystals were dissolved in 50 µL of SDS, and the absorbance was determined at 545 nm using a Stat Fax 2100 microplate reader (Awareness Technology, Palm City, FL, USA). The cell viability was calculated as follows: viability (%) = (absorbance of the treated wells)/(absorbance of the control wells) ×100. The IC50 (complex concentration (µM) that results in a 50% reduction in cellular viability) was obtained from dose-response curves using GraphPad Prism 4.02 for Windows (GraphPad Software, San Diego, CA, USA).

[7] = test system: caspase 9; assay: Real-time RT-PCR gene expression, caspase 9; conditions: S180 cells, 40 µM, 6 h; normalized to β-actin
Description: as §1, §2

expression level of caspase 3 compared to control [1]: 2.55 fold | activity of caspase-9 [3]: 176.43% | activity of caspase-8 [4]: 127.22% | expression level of caspase 9 compared to control [7]: 1.83 fold
SMILES: F[P-](F)(F)(F)(F)F.NCC(=O)[O-].[Ru+2].c1ccc(-c2ccccn2)nc1.c1ccc(P(CCCCP(c2ccccc2)c2ccccc2)c2ccccc2)cc1 [Complex 2, [Ru(gly)(bipy)(dppb)]PF6]
expression level of the Bak protein [2]: 9.40 fold | fraction of G0/G1 cells ([5]; 40 µM, 24 h, control 23.6%): 61.07% | fraction of G0/G1 cells ([5]; 40 µM, 48 h, control 41.55%): 59.94% | fraction of G0/G1 cells ([5]; 60 µM, 24 h, control 23.6%): 56.09% | fraction of G0/G1 cells ([5]; 60 µM, 48 h, control 41.55%): 59.86% | IC50 [6]: 51.6 ± 1.22 µM
